Bridge positions count the residues as written; N and C are the ends. Square brackets hold non-standard residues; d marks the D form. Peptide text beside a SMILES is read from it. * marks the point of attachment. ξ: configuration not given here. Phe(4-COOH) = N[C@@H](Cc1ccc(C(=O)O)cc1)C(=O)O; Bip = N[C@@H](Cc1ccc(-c2ccccc2)cc1)C(=O)O; NH(CH2)14COOH = O=C(O)CCCCCCCCCCCCCCN*; Phe(3-Me) = Cc1cccc(C[C@H](N)C(=O)O)c1; Val(3-OH) = CC(C)(O)[C@H](N)C(=O)O; hArg = N=C(N)NCCCC[C@H](N)C(=O)O; 3Pal = N[C@@H](Cc1cccnc1)C(=O)O; 4Pal = N[C@@H](Cc1ccncc1)C(=O)O; Cha = N[C@@H](CC1CCCCC1)C(=O)O; Cit = NC(=O)NCCC[C@H](N)C(=O)O; Thr(3ξ) = CC(O)[C@H](N)C(=O)O; Tle = CC(C)(C)[C@H](N)C(=O)O; 12Ado = NCCCCCCCCCCCC(=O)O; hSer = N[C@@H](CCO)C(=O)O; 3Abz = Nc1cccc(C(=O)O)c1; Carboxymethyl = O=C(O)C*; Orn = NCCC[C@H](N)C(=O)O; dNMeA = CN[C@H](C)C(=O)O; Aun = NCCCCCCCCCCC(=O)O; Dab = NCC[C@H](N)C(=O)O; Dap = NC[C@H](N)C(=O)O; AEEA = NCCOCCOCC(=O)O
Molecular target: T1, PD-1/PD-L1 interaction (PE-labeled human PD-L1-Ig binding to Jurkat cell line over-expressing human PD-1) (Homo sapiens, UniProt Q15116)
T1 construct: expressed in transfected cells; host or cells: Jurkat
T1 sequence (Q15116 25-288): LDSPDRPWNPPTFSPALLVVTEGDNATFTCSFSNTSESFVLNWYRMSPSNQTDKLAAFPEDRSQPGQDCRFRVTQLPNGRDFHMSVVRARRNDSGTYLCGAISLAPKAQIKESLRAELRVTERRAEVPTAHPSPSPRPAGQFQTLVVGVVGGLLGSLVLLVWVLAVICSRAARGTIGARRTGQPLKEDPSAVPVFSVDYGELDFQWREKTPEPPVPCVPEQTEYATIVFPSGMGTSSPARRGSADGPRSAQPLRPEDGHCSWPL
Assay: Jurkat-PD-1 Cell Binding High-Content Screening Assay (CBA)
Assay type: cell-based
Settings: Jurkat cell line over-expressing human PD-1; PE-labeled PD-L1-Ig 20 nM final; read-out: Jurkat hPD1-PDL1 IC50
How it was run: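 First, compound is added to PD-1-expressing Jurkat cells in serum-containing DMEM and left 2 h at 37° C. Next, PE-conjugated PD-L1-Ig is introduced at 20 nM final concentration for 1 hour. Finally, cells are fixed in 4% paraformaldehyde with Hoechst 33342, washed and imaged.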

Compound | IC50
Cc1cccc(C[C@@H]2NC(=O)[C@H](CC(=O)O)NC(=O)[C@H](Cc3ccc(OCC(=O)O)cc3)NC(=O)[C@H](CCCNC(=N)N)NC(=O)CSC[C@@H](C(=O)N[C@@H](CCN)C(=O)NCCCCCCCCCCC(=O)O)NC(=O)[C@H](C(C)O)NC(=O)[C@H](C(C)C)NC(=O)[C@H](CC3CCCCC3)NC(=O)[C@H](CCN)NC(=O)[C@@H](CC(C)C)NC(=O)[C@H](CCN)NC(=O)[C@H](CCCNC(N)=O)NC(=O)[C@H](Cc3ccc(-c4ccccc4)cc3)NC(=O)[C@H](C(C)C)NC2=O)c1 (stereo partly drawn) [Compound 3307] ({CH2CO}-RY(Carboxymethyl)D[Phe(3-Me)]V[Bip][Cit][Dab][dL][Dab][Cha]V[Thr(3ξ)]C[Dab][Aun]-OH; thioether N-14) | 7.4 nM
CC(C)C[C@@H]1NC(=O)[C@H](Cc2c[nH]c3ccccc23)NC(=O)[C@H](CC(=O)O)NC(=O)[C@H](Cc2ccncc2)NC(=O)[C@H](Cc2ccc(OCC(=O)O)cc2)NC(=O)CSC[C@@H](C(=O)Nc2cccc(C(=O)NCCCCCCCCCCC(=O)O)c2)NC(=O)[C@H](CCCN)NC(=O)[C@H](C(C)C)NC(=O)[C@H](CC2CCCCC2)NC(=O)[C@H](CCN)NC(=O)[C@@H](CC(C)C)NC(=O)[C@H](CCCN)NC(=O)[C@H](C(C)C)NC(=O)[C@H](Cc2ccc(-c3ccccc3)cc2)NC1=O [Compound 1312] ({CH2CO}-Y(Carboxymethyl)[4Pal]DWL[Bip]V[Orn][dL][Dab][Cha]V[Orn]C[3Abz][Aun]-OH; thioether N-14) | 105 nM
Cc1cccc(C[C@@H]2NC(=O)[C@H](CC(=O)O)NC(=O)[C@H](Cc3ccc(OCC(=O)O)cc3)NC(=O)[C@H](CCCNC(=N)N)NC(=O)CSC[C@@H](C(=O)N[C@H](CC(N)=O)C(=O)NCCCCCCCCCCC(=O)O)NC(=O)[C@H](CO)NC(=O)[C@H](C(C)(C)C)NC(=O)[C@H](CC3CCCCC3)NC(=O)[C@H](CCN)NC(=O)[C@@H](CC(C)C)NC(=O)[C@H](CCCN)NC(=O)[C@H](Cc3ccc(OCC(=O)O)cc3)NC(=O)[C@H](Cc3ccc(-c4ccccc4)cc3)NC(=O)[C@H](Cc3ccc(OCC(=O)O)cc3)NC2=O)c1 [Compound 3527] ({CH2CO}-RY(Carboxymethyl)D[Phe(3-Me)]Y(Carboxymethyl)[Bip]Y(Carboxymethyl)[Orn][dL][Dab][Cha][Tle]SC[dN][Aun]-OH; thioether N-14) | 51.4 nM
Cc1cccc(C[C@@H]2NC(=O)[C@H](CC(=O)O)NC(=O)[C@H](Cc3ccc(OCC(=O)O)cc3)NC(=O)[C@H](CN)NC(=O)CSC[C@@H](C(=O)NCC(=O)NCCCCCCCCCCC(=O)O)NC(=O)[C@H]([C@@H](C)O)NC(=O)[C@H](C(C)C)NC(=O)[C@H](CC3CCCCC3)NC(=O)[C@H](CCN)NC(=O)[C@@H](CC(C)C)NC(=O)[C@H](CCCN)NC(=O)[C@H](CCCNC(N)=O)NC(=O)[C@H](Cc3ccc(-c4ccccc4)cc3)NC(=O)[C@H](C(C)C)NC2=O)c1 [Compound 1295] ({CH2CO}-[Dap]Y(Carboxymethyl)D[Phe(3-Me)]V[Bip][Cit][Orn][dL][Dab][Cha]VTCG[Aun]-OH; thioether N-14) | 22.2 nM
Cc1cccc(C[C@@H]2NC(=O)[C@H](CC(=O)O)NC(=O)[C@H](Cc3ccc(OCC(=O)O)cc3)NC(=O)[C@H](CN)NC(=O)CSC[C@@H](C(=O)N[C@@H](CCN)C(=O)NCCCCCCCCCCC(=O)O)NC(=O)[C@H](Cc3cccnc3)NC(=O)[C@H](C(C)C)NC(=O)[C@H](CC3CCCCC3)NC(=O)[C@H](CCN)NC(=O)[C@@H](CC(C)C)NC(=O)[C@H](CCCN)NC(=O)[C@H](Cc3ccc(O)cc3)NC(=O)[C@H](Cc3ccc(-c4ccccc4)cc3)NC(=O)[C@H](C(C)C)NC2=O)c1 [Compound 2766] ({CH2CO}-[Dap]Y(Carboxymethyl)D[Phe(3-Me)]V[Bip]Y[Orn][dL][Dab][Cha]V[3Pal]C[Dab][Aun]-OH; thioether N-14) | 55.9 nM
CC(C)C[C@H]1NC(=O)[C@H](CCCN)NC(=O)[C@H](CCC(=O)O)NC(=O)[C@H](Cc2ccc(-c3ccccc3)cc2)NC(=O)[C@H](C(C)C)NC(=O)[C@H](Cc2c[nH]c3ccccc23)NC(=O)[C@H](CC(=O)O)NC(=O)[C@H](Cc2ccncc2)NC(=O)[C@H](CCCCNC(=N)N)NC(=O)CSC[C@@H](C(=O)N[C@@H](C)C(=O)NCCOCCOCC(=O)N[C@@H](CCCCN)C(=O)NCCCCCCCCCCCCCCC(=O)O)NC(=O)[C@H](CO)NC(=O)[C@H](C(C)C)NC(=O)[C@H](CC2CCCCC2)NC(=O)[C@H](CCN)NC1=O [Compound 3034] ({CH2CO}-[hArg][4Pal]DWV[Bip]E[Orn][dL][Dab][Cha]VSCA[AEEA]K-{NH(CH2)14COOH}; thioether N-14) | 109 nM
Cc1cccc(C[C@@H]2NC(=O)[C@H](CC(=O)O)NC(=O)[C@H](Cc3ccc(OCC(=O)O)cc3)NC(=O)[C@H](CCN)NC(=O)CSC[C@@H](C(=O)N[C@@H](CCN)C(=O)NCCCCCCCCCCC(=O)O)NC(=O)[C@H](CO)NC(=O)[C@H](C(C)(C)O)NC(=O)[C@H](CC3CCCCC3)NC(=O)[C@H](Cc3c[nH]cn3)NC(=O)[C@@H](CC(C)C)NC(=O)[C@H](CCCN)NC(=O)[C@H](Cc3ccc(OCC(=O)O)cc3)NC(=O)[C@H](Cc3ccc(-c4ccccc4)cc3)NC(=O)[C@H](Cc3ccc(C(=O)O)cc3)NC2=O)c1 [Compound 3714] ({CH2CO}-[Dab]Y(Carboxymethyl)D[Phe(3-Me)][Phe(4-COOH)][Bip]Y(Carboxymethyl)[Orn][dL]H[Cha][Val(3-OH)]SC[Dab][Aun]-OH; thioether N-14) | 12.4 nM
Cc1cccc(C[C@@H]2NC(=O)[C@H](CC(=O)O)NC(=O)[C@H](Cc3ccc(OCC(=O)O)cc3)NC(=O)[C@H](CN)NC(=O)CSC[C@@H](C(=O)N[C@@H](CCCCN)C(=O)NCCOCCOCC(=O)NCCCCCCCCCCC(=O)O)NC(=O)[C@H](CCCNC(=N)N)NC(=O)[C@H](C(C)C)NC(=O)[C@H](CC3CCCCC3)NC(=O)[C@H](CCN)NC(=O)[C@@H](CC(C)C)NC(=O)[C@H](CCCN)NC(=O)[C@H](CCC(=O)O)NC(=O)[C@H](Cc3ccc(-c4ccccc4)cc3)NC(=O)[C@H](C(C)C)NC2=O)c1 [Compound 2670] ({CH2CO}-[Dap]Y(Carboxymethyl)D[Phe(3-Me)]V[Bip]E[Orn][dL][Dab][Cha]VRCK[AEEA][Aun]-OH; thioether N-14) | 10.8 nM

Next, values leading:

IC50 | Compound
180 nM | Cc1cccc(C[C@@H]2NC(=O)[C@H](CC(=O)O)NC(=O)[C@H](Cc3ccc(OCC(=O)O)cc3)NC(=O)[C@H](CN)NC(=O)CSC[C@@H](C(=O)N[C@@H](C)C(=O)N[C@@H](CCCCN)C(=O)NCC(=O)NCCCCCCCCCCCCCCC(=O)O)NC(=O)[C@H](C(C)O)NC(=O)[C@H](C(C)C)NC(=O)[C@H](CC3CCCCC3)NC(=O)[C@H](CCN)NC(=O)[C@@H](CC(C)C)NC(=O)[C@H](CCCN)NC(=O)[C@H](CCCNC(N)=O)NC(=O)[C@H](Cc3ccc(-c4ccccc4)cc3)NC(=O)[C@H](C(C)C)NC2=O)c1 (stereo partly drawn) [Compound 3007] ({CH2CO}-[Dap]Y(Carboxymethyl)D[Phe(3-Me)]V[Bip][Cit][Orn][dL][Dab][Cha]V[Thr(3ξ)]CAKG-{NH(CH2)14COOH}; thioether N-14)
19.2 nM | Cc1cccc(C[C@@H]2NC(=O)[C@H](CC(=O)O)NC(=O)[C@H](Cc3ccc(OCC(=O)O)cc3)NC(=O)[C@H](CCO)NC(=O)CSC[C@@H](C(=O)N[C@@H](CCO)C(=O)N[C@@H](CO)C(=O)NCCCCCCCCCCCC(=O)O)NC(=O)[C@H](C(C)O)NC(=O)[C@H](C(C)C)NC(=O)[C@H](CC3CCCCC3)NC(=O)[C@H](CCN)NC(=O)[C@@H](CC(C)C)NC(=O)[C@H](CCCN)NC(=O)[C@H](CCCNC(N)=O)NC(=O)[C@H](Cc3ccc(-c4ccccc4)cc3)NC(=O)[C@H](C(C)C)NC2=O)c1 (stereo partly drawn) [Compound 3566] ({CH2CO}-[hSer]Y(Carboxymethyl)D[Phe(3-Me)]V[Bip][Cit][Orn][dL][Dab][Cha]V[Thr(3ξ)]C[hSer]S[12Ado]-OH; thioether N-14)
4.2 nM | Cc1cccc(C[C@@H]2NC(=O)[C@H](CC(=O)O)NC(=O)[C@H](Cc3ccc(OCC(=O)O)cc3)NC(=O)[C@H](CCCNC(=N)N)NC(=O)CSC[C@@H](C(=O)NCCOCCOCC(=O)NCCCCCCCCCCC(=O)O)NC(=O)[C@H](CCCN)NC(=O)[C@H](C(C)C)NC(=O)[C@H](CC3CCCCC3)NC(=O)[C@H](CCN)NC(=O)[C@@H](CC(C)C)NC(=O)[C@H](CCN)NC(=O)[C@H](C(C)C)NC(=O)[C@H](Cc3ccc(-c4ccccc4)cc3)NC(=O)[C@H](C(C)C)NC2=O)c1 [Compound 3351] ({CH2CO}-RY(Carboxymethyl)D[Phe(3-Me)]V[Bip]V[Dab][dL][Dab][Cha]V[Orn]C[AEEA][Aun]-OH; thioether N-14)
46.7 nM | CC(C)C[C@H]1NC(=O)[C@H](CCCN)NC(=O)[C@H](C(C)C)NC(=O)[C@H](Cc2ccc(-c3ccccc3)cc2)NC(=O)[C@H](C(C)C)NC(=O)[C@H](Cc2c[nH]c3ccccc23)NC(=O)[C@H](CC(=O)O)NC(=O)[C@H](Cc2ccc(OCC(=O)O)cc2)NC(=O)[C@H](CCCCNC(=N)N)NC(=O)CSC[C@@H](C(=O)N[C@@H](CN)C(=O)NCCCCCCCCCCC(=O)O)NC(=O)[C@H](C(C)O)NC(=O)[C@H](C(C)C)NC(=O)[C@H](CC2CCCCC2)NC(=O)[C@H](Cc2cnc[nH]2)NC1=O (stereo partly drawn) [Compound 3152] ({CH2CO}-[hArg]Y(Carboxymethyl)DWV[Bip]V[Orn][dL]H[Cha]V[Thr(3ξ)]C[Dap][Aun]-OH; thioether N-14)
180 nM | Cc1cccc(C[C@@H]2NC(=O)[C@H](CC(=O)O)NC(=O)[C@H](Cc3ccc(OCC(=O)O)cc3)NC(=O)[C@H](CN)NC(=O)CSC[C@@H](C(=O)N(C)[C@H](C)C(=O)N[C@@H](CCC(=O)O)C(=O)NCCCCCCCCCCC(=O)O)NC(=O)[C@H]([C@@H](C)O)NC(=O)[C@H](C(C)C)NC(=O)[C@H](CC3CCCCC3)NC(=O)[C@H](CCN)NC(=O)[C@@H](CC(C)C)NC(=O)[C@H](CCCN)NC(=O)[C@H](CCCNC(N)=O)NC(=O)[C@H](Cc3ccc(-c4ccccc4)cc3)NC(=O)[C@H](C(C)C)NC2=O)c1 [Compound 2809] ({CH2CO}-[Dap]Y(Carboxymethyl)D[Phe(3-Me)]V[Bip][Cit][Orn][dL][Dab][Cha]VTC[dNMeA]E[Aun]-OH; thioether N-14)
